Laboratory results published in ChEMBL document CHEMBL1129024, “Design, synthesis, and antitumor activity of bicyclic and isomeric analogues of illudin M” (Bioorg Med Chem Lett, 1996).

Experiments:
Format in all cases: functional, cell-based
[1] = test system: MDA-MB-231; assay: In vitro antitumor activity against MB231 (breast) human tumor cell lines.
[2] = test system: A-375; assay: In vitro antitumor activity against A375 (melanoma) human tumor cell lines.
[3] = test system: A549; assay: In vitro antitumor activity against A549 (lung) human tumor cell lines.
[4] = test system: SW480; assay: In vitro antitumor activity against SW480 (colon) human tumor cell lines.

Structure (SMILES)	IC50 [1] [nM]	IC50 [2] [nM]	IC50 [3] [nM]	IC50 [4] [nM]
CC1=C/C(=C\C(C)C)C(=O)C(C)(O)C12CC2 (stereo not given)	300	130	110	30
CC1=C/C(=C\c2ccccc2)C(=O)C(C)(O)C12CC2 (stereo not given)	4000	> 10000	1500	2500
CC1=C/C(=C\c2cccs2)C(=O)C(C)(O)C12CC2 (stereo not given)	> 10000	> 10000	> 10000	> 10000
C=C/C=C1\C=C(C)C2(CC2)C(C)(O)C1=O (stereo not given)	28	18	2	180
CC1=C2C(=O)C(C)(C)C=C2C(=O)[C@](C)(O)C12CC2 [DEHYDROILLUDIN M]	450	550	200	300
C/C=C1\C=C(C)C2(CC2)C(C)(O)C1=O (stereo not given)	110	4	150	120
CC1=C/C(=C\Cl)C(=O)C(C)(O)C12CC2 (stereo not given)	300	1000	200	30
CC1=C/C(=C\C#CCCO)C(=O)C(C)(O)C12CC2 (stereo not given)	2000	2000	3000	4000
C=C1C2=C(CC(C)(C)C2=O)C(=O)C(C)(O)C12CC2 (stereo not given)	2000	32	250	60
COc1cccc2c1C(=O)c1c(O)c3c(c(O)c1C2=O)C[C@@](O)(C(=O)CO)C[C@@H]3O[C@H]1C[C@H](N)[C@H](O)[C@H](C)O1 [DOXORUBICIN]	150	70	120	60
